Here are results for 10 molecules from patent publication US20210087191A1, “SUBSTITUTED 3-ISOBUTYL-9,10-DIMETHOXY-1,3,4,6,7,11B-HEXAHYDRO-2H-PYRIDO[2,1-a]ISOQUINOLIN-2-OL COMPOUNDS, THEIR [sequence], AND USE THEREOF” (DISPERSOL TECHNOLOGIES, LLC, priority 2020, published 2021).

Molecules are shown by their SMILES. Values after ≈ are worked out from the molar mass of the structure shown. Like-named read-outs stand apart in the source and are kept apart here.

As usually defined, the efflux ratio is the permeability from basolateral to apical divided by that in the opposite direction, in the common usage. Usually Papp A→B stands for how fast a substance crosses the layer from the apical side. For orientation: Papp B→A means how fast a substance crosses the layer from the basolateral side. For orientation: solubility (kinetic) means the concentration staying in solution when a stock, usually in DMSO, is diluted into the medium.

The conditions of data set [1]: in vivo; cited from earlier work.
The subject of data set [2] is human cryopreserved hepatocytes. The data set is described as follows: Heps. stability assay, human cryopreserved hepatocytes. It counts as in vitro ADME. The procedure:
(§1) Metabolism of compound(s) to release (+)-α-DTHBZ was determined by the half-life (t1/2) and intrinsic clearance (CIint) in human cryopreserved hepatocytes using tandem mass spectrometry (LC-MS/MS).

A short description of data set [3]: Permeability in Caco-2 cell monolayer. Type of data set: in vitro ADME. Conditions: human; for efflux ratio: Caco-2; for Papp A→B: Caco-2, apical to basolateral; for Papp B→A: Caco-2, basolateral to apical. On the procedure:
The intestinal permeability of compound(s) was evaluated in Caco-2 cells by assessing transport across the cell monolayer in the apical to basolateral (A-B) direction. Active efflux was also assessed by measuring transport in the basolateral to apical (BA) direction which enables evaluation of the efflux ratio. Analysis of transport is quantified by tandem mass spectrometry (LC-MS/MS).

The nature of data set [4]: Stability in human plasma (PS), LC-MS/MS. Particulars: for half-life: read-out: Human PS t1/2. It counts as in vitro ADME. On the procedure: (§2) Metabolism of compound(s) to release (+)-α-DTHBZ was determined by the half-life (t1/2) and intrinsic clearance (CIint) in human plasma (PS) and liver microsomes (LM) using tandem mass spectrometry (LC-MS/MS).
Data set [5] can be described thus: Metabolic stability in human liver microsomes (LM), LC-MS/MS (first table). Type of data set: in vitro ADME. Conditions: for microsomal CLint: Table 1, read-out: Human LM CLint (μL/min/mg protein); for half-life: Table 1, read-out: Human LM t1/2. On the procedure: as §2
For orientation: Liver microsomes are vesicles of endoplasmic reticulum, rich in cytochrome P450 enzymes.

The nature of data set [6]: Kinetic solubility in PBS buffer. It counts as physicochemical. Particulars: aqueous buffer, kinetic from dmso stock, compound suspended at 300 μM, 25° C. On the procedure:
Kinetic solubility was determined by suspending compound at 300 μM at pH 1.2 and 7.4 in PBS buffer. The suspension was equilibrated by shaking at 25° C. at 1100 RPM for 2 hours and then pH was measured following filtration. The filtrate was then diluted by an appropriate factor (e.g. 100-fold). Quantitation was done by LC-MS/MS with reference to a standard solution.

The nature of data set [7]: LM stability assay, human (second table). It counts as in vitro ADME. Conditions: human liver microsomes, Table 2; for microsomal CLint: read-out: LM stability assay Human Clint (μL/min/mg protein); for half-life: read-out: LM stability assay Human t1/2. The procedure: Metabolism of compound(s) to release (+)-α-DTHBZ was determined by the half-life (t1/2) and intrinsic clearance (CIint) in human liver microsomes (LM) using tandem mass spectrometry (LC-MS/MS).

Data set [8] can be described thus: Heps. stability assay, human cryopreserved hepatocytes. Type of data set: in vitro ADME. Particulars: for microsomal CLint: read-out: Heps. stability assay Human Clint (μL/min/mg protein); for half-life: read-out: Heps. stability assay Human t1/2. The procedure: as §1
The mark [9] stands for this setting: pH 1.2, PBS buffer, read-out: Kinetic Solubility pH = 1.2 (300 μM).
Setting [10] is: pH 7.4, PBS buffer, read-out: Kinetic Solubility pH = 7.4 (300 μM).

Consider `[2H]C([2H])([2H])Oc1cc2c(cc1OC([2H])([2H])[2H])C1CC(=O)C(CC(C)C)CN1CC2` (centres unmarked) [Austedo®], for which the “median Tmax” value in data set [1] is 3 to 4 h.
As for `COc1cc2c(cc1OC)[C@H]1C[C@@H](OC(=O)CCC(=O)O)[C@H](CC(C)C)CN1CC2` [Example 2, 4-[[(2R,3R,11bR)-9,10-dimethoxy-3-(2-methylpropyl)-1H,2H,3H,4H,6H,7H,11bH-pyrido[2,1-a]isoquinolin-2-yl]oxy]-4-oxobutanoic acid], the “Heps. stability assay Human t1/2 (min)” value in data set [2] was “∞”. In addition, in data set [3], the efflux ratio was 2.54, the Papp A→B came to 8.67 ×10⁻⁶ cm/s and the Papp B→A was determined as 22 ×10⁻⁶ cm/s. In addition, in data set [4], the “Human PS t1/2 (min)” value is reported as “∞”. In data set [5], the microsomal CLint is under 0.79 µL/min/mg and the half-life was over 14.7 h. Besides, the kinetic solubility at 2 h in data set [6] (setting [9]) came out at 281 µM (≈ 118 µg/mL). In data set [6] (setting [10]), the kinetic solubility at 2 h was 295 µM (≈ 124 µg/mL). For the same molecule, the “LM stability assay Human t1/2 (min)” value in data set [7] is “∞”.
Turning to `COc1cc2c(cc1OC)[C@H]1C[C@@H](OC(=O)CCC(=O)OC(C)C)[C@H](CC(C)C)CN1CC2` [Example 7, (2R,3R,11bR)-9,10-dimethoxy-3-(2-methylpropyl)-1H,2H,3H,4H,6H,7H,11bH-pyrido[2,1-a]isoquinolin-2-yl 1-isopropyl butanedioate], the microsomal CLint in data set [8] turned out to be 282 µL/min/mg; in data set [5] it was 65.8 µL/min/mg; in data set [7], 922 µL/min/mg. In addition, the half-life in data set [8] was 0.082 h; in data set [4], over 13.5 h; in data set [5] it was 0.176 h; in data set [7] it was 0.0125 h. Also, the efflux ratio in data set [3] was found to be 0.84. The Papp A→B in data set [3] is 1.78 ×10⁻⁶ cm/s. This molecule also returned a Papp B→A in data set [3] of 1.5 ×10⁻⁶ cm/s. Further, the solubility (kinetic) at 2 h in data set [6] (setting [9]) stood at 311 µM (≈ 143 µg/mL); in data set [6] (setting [10]), 5.84 µM (≈ 2.7 µg/mL).
For the molecule `COc1cc2c(cc1OC)[C@H]1C[C@@H](OC(=O)c3cncc(C(=O)OC(C)C)c3)[C@H](CC(C)C)CN1CC2` [Example 9, 3-((2R,3R,11bR)-3-isobutyl-9,10-dimethoxy-1,3,4,6,7,11b-hexahydro-2H-pyrido[2,1-a]isoquinolin-2-yl) 5-isopropyl pyridine-3,5-dicarboxylate], in data set [8], the microsomal CLint was determined as 121 µL/min/mg and the half-life amounted to 0.191 h. For the same molecule, in data set [3], the efflux ratio came to 0.95, the apparent permeability from apical to basolateral (Papp A→B) amounted to 0.202 ×10⁻⁶ cm/s and the apparent permeability from basolateral to apical (Papp B→A) turned out to be 0.191 ×10⁻⁶ cm/s. The “Human PS t1/2 (min)” value in data set [4] is on record as “∞”. In data set [5], the microsomal CLint was 16.3 µL/min/mg and the half-life is 0.708 h. Besides, the solubility (kinetic) at 2 h in data set [6] (setting [9]) came to 292 µM (≈ 149 µg/mL). Also, in data set [6] (setting [10]), the kinetic solubility at 2 h is 0.0018 µM (≈ 0.000919 µg/mL). In data set [7], the microsomal CLint is 613 µL/min/mg and the half-life was 0.0188 h.
Consider `COc1cc2c(cc1OC)[C@H]1C[C@@H](OC(=O)/C=C/C(=O)N[C@@H](Cc3ccccc3)C(=O)O)[C@H](CC(C)C)CN1CC2` [Example 12, (2S)-2-[(2E)-4-[[(2R,3R,11bR)-9,10-dimethoxy-3-(2-methylpropyl)-1H,2H,3H,4H,6H,7H,11bH-pyrido[2,1-a]isoquinolin-2-yl]oxy]-4-oxobut-2-enamido]-3-phenylpropanoic acid], for which the figures for the microsomal CLint in data set [8], in data set [5] and in data set [7] were 6.27 µL/min/mg, 1.42 µL/min/mg and 2.38 µL/min/mg, respectively. In addition, the half-life turned out to be 3.69 h in data set [8], 0.238 h in data set [4], 11.5 h in data set [5] and 8.91 h in data set [7]. Further, the efflux ratio in data set [3] was 85.4. This molecule also displayed a Papp A→B in data set [3] of 0.13 ×10⁻⁶ cm/s. In data set [3], this molecule registered a Papp B→A of 11.3 ×10⁻⁶ cm/s. The kinetic solubility at 2 h in data set [6] (setting [9]) is 320 µM (≈ 181 µg/mL); in data set [6] (setting [10]) it was 306 µM (≈ 173 µg/mL).
Regarding `COc1cc2c(cc1OC)[C@H]1C[C@@H](OC(=O)/C=C\C(=O)N[C@H](C(=O)O)C(C)C)[C@H](CC(C)C)CN1CC2` [Example 13, (2S)-2-[(2Z)-4-[[(2R,3R,11bR)-9,10-dimethoxy-3-(2-methylpropyl)-1H,2H,3H,4H,6H,7H,11bH-pyrido[2,1-a]isoquinolin-2-yl]oxy]-4-oxobut-2-enamido]-3-methylbutanoic acid], the results for the microsomal CLint in data set [8], in data set [5] and in data set [7] were 4.75 µL/min/mg, 2.17 µL/min/mg and 0.35 µL/min/mg, respectively. The half-life in data set [8] worked out at 4.89 h; in data set [4], 2.38 h; in data set [5], 5.76 h; in data set [7] it was 51.1 h. Also, the efflux ratio in data set [3] was over 402. Moreover, in data set [3], the Papp A→B was under 0.01 ×10⁻⁶ cm/s. The molecule also came in with a Papp B→A in data set [3] of 4.02 ×10⁻⁶ cm/s. Moreover, the kinetic solubility at 2 h in data set [6] (setting [9]) is 303 µM (≈ 156 µg/mL); in data set [6] (setting [10]), 300 µM (≈ 155 µg/mL).
Consider `COc1cc2c(cc1OC)[C@H]1C[C@@H](OC(=O)c3cncc(C(=O)O[C@@H]4C[C@@H]5c6cc(OC)c(OC)cc6CCN5C[C@H]4CC(C)C)c3)[C@H](CC(C)C)CN1CC2` [Example 15, 3,5-bis[(2R,3R,11bR)-9,10-dimethoxy-3-(2-methylpropyl)-1H,2H,3H,4H,6H,7H,11bH-pyrido[2,1-a]isoquinolin-2-yl] pyridine-3,5-dicarboxylate], for which the microsomal CLint was 16.6 µL/min/mg in data set [8] and under 0.08 µL/min/mg in data set [5]. Further, the half-life in data set [8] is 1.39 h; in data set [4], over 53.7 h; in data set [5], over 143 h. The same molecule returned a Papp A→B in data set [3] of under 0.01 ×10⁻⁶ cm/s. The same molecule gave a Papp B→A in data set [3] of under 0.01 ×10⁻⁶ cm/s. The kinetic solubility at 2 h in data set [6] (setting [9]) was 317 µM (≈ 244 µg/mL); in data set [6] (setting [10]), 0.06 µM (≈ 0.0462 µg/mL). Besides, in data set [7], the “LM stability assay Human t1/2 (min)” value is given as “∞”.
Take `COc1cc2c(cc1OC)[C@H]1C[C@@H](OC(=O)CCCCCCC(=O)O[C@@H]3C[C@@H]4c5cc(OC)c(OC)cc5CCN4C[C@H]3CC(C)C)[C@H](CC(C)C)CN1CC2` [Example 16, bis[(2R,3R,11bR)-9,10-dimethoxy-3-(2-methylpropyl)-1H,2H,3H,4H,6H,7H,11bH-pyrido[2,1-a]isoquinolin-2-yl] octanedioate]: the microsomal CLint is 22.6 µL/min/mg in data set [8], under 1.25 µL/min/mg in data set [5] and 150 µL/min/mg in data set [7]. Moreover, the half-life in data set [8] was 1.03 h; in data set [5], over 9.21 h; in data set [7], 0.0775 h. This molecule also yielded a Papp A→B in data set [3] of under 0.02 ×10⁻⁶ cm/s. The same molecule had a Papp B→A in data set [3] of under 0.01 ×10⁻⁶ cm/s. Moreover, the “Human PS t1/2 (min)” value in data set [4] is “∞”. In addition, the kinetic solubility at 2 h stood at 141 µM (≈ 110 µg/mL) in data set [6] (setting [9]) and 0.042 µM (≈ 0.0326 µg/mL) in data set [6] (setting [10]).
For the molecule `COc1cc2c(cc1OC)[C@H]1C[C@@H](OC(=O)CCC(=O)O[C@@H]3C[C@@H]4c5cc(OC)c(OC)cc5CCN4C[C@H]3CC(C)C)[C@H](CC(C)C)CN1CC2` [Example 17], the microsomal CLint came out at 16.9 µL/min/mg in data set [8], 1.59 µL/min/mg in data set [5] and 71.5 µL/min/mg in data set [7]. Besides, the half-life in data set [8] came out at 1.37 h; in data set [4] it was 36.9 h; in data set [5], 7.6 h; in data set [7], 0.162 h. The efflux ratio in data set [3] was over 1.93. In data set [3], this molecule yielded a Papp A→B of under 0.02 ×10⁻⁶ cm/s. Also, the Papp B→A in data set [3] turned out to be 0.0333 ×10⁻⁶ cm/s. Also, the figures for the kinetic solubility at 2 h in data set [6] (setting [9]) and in data set [6] (setting [10]) were 308 µM (≈ 222 µg/mL) and 0.0019 µM (≈ 0.00137 µg/mL), respectively.
In the case of `COc1cc2c(cc1OC)[C@H]1C[C@@H](OC(=O)NCC(C)C)[C@H](CC(C)C)CN1CC2` [Example 23, (2R,3R,11bR)-9,10-dimethoxy-3-(2-methylpropyl)-1H,2H,3H,4H,6H,7H,11bH-pyrido[2,1-a]isoquinolin-2-yl N-(2-methylpropyl)carbamate], the values for the microsomal CLint in data set [8], in data set [5] and in data set [7] were 35.6 µL/min/mg, under 3.95 µL/min/mg and 208 µL/min/mg, respectively. Also, the half-life in data set [8] is 0.649 h; in data set [4], 438 h; in data set [5] it was over 2.92 h; in data set [7] it was 0.0557 h. The efflux ratio in data set [3] was found to be 0.67. Besides, the Papp A→B in data set [3] amounted to 14.2 ×10⁻⁶ cm/s. This molecule also yielded a Papp B→A in data set [3] of 9.54 ×10⁻⁶ cm/s. The solubility (kinetic) at 2 h in data set [6] (setting [9]) came out at 312 µM (≈ 131 µg/mL); in data set [6] (setting [10]), 91.2 µM (≈ 38.2 µg/mL).
